The values that follow come from patent US10758534B2 (Vertex Pharmaceuticals Incorporated, priority 2014, dated 2020).

The first experiment deals with T1, F508del (Homo sapiens, UniProt P13569, DEL508-508).
T1 construct: expressed in transfected cells
T1 sequence (P13569 with tags, fused parts or gaps DEL508-508): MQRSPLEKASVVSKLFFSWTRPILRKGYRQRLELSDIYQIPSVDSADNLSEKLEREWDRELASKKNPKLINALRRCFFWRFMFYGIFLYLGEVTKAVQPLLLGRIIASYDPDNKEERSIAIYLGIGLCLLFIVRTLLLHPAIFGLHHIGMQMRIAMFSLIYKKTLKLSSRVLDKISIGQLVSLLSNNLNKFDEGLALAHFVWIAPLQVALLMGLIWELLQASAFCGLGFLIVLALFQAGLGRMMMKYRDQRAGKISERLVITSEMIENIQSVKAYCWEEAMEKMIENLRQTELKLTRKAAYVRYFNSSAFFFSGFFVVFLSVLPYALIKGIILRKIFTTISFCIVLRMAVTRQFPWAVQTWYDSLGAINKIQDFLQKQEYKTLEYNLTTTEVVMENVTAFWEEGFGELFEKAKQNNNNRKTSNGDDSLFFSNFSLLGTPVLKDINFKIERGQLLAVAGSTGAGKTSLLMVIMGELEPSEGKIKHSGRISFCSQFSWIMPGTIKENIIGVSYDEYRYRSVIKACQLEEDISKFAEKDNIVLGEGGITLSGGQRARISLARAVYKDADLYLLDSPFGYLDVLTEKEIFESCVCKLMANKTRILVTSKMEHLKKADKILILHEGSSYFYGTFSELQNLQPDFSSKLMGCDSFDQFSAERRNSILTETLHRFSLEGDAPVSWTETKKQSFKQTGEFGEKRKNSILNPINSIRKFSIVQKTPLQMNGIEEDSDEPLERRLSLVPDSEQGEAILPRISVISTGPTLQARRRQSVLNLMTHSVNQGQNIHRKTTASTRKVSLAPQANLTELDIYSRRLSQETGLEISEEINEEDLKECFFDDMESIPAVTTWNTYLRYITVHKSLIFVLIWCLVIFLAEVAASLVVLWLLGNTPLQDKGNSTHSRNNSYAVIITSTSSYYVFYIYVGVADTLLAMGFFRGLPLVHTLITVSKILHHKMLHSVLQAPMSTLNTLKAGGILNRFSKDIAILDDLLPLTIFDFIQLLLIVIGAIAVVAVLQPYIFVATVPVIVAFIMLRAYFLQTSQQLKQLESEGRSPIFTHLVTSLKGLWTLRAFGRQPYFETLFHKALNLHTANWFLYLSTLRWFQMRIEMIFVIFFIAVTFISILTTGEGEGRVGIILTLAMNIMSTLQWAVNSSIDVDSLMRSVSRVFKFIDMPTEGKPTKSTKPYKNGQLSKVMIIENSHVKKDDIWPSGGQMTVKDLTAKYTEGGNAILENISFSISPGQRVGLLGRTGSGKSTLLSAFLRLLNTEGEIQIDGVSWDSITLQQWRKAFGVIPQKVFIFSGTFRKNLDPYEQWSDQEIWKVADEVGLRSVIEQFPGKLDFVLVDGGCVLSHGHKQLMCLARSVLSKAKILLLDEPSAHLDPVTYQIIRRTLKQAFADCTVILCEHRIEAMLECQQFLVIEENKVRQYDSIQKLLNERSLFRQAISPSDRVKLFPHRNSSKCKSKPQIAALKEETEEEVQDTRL
The experiment can be described thus: Protocol 2: FRET membrane potential optical assay (VIPR), identification of correction compounds. In kind it is cell-based. Conditions: F508del CFTR modulator activity; compounds of Table 1; read-out: EC30. The method in brief:
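Corrector readout: membrane-potential FRET (CC2-DMPE donor, DiSBAC2(3) acceptor) on VIPR II after Cl⁻-free gluconate bath with 10 μM forskolin and 20 μM genistein. Before this, F508del-expressing NIH3T3 cells were exposed to test compound for 16 h at 37 °C without serum; 27 °C incubation served as temperature-correction control.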
Regarding `COc1cccc(-c2ccc(C(=O)NS(=O)(=O)c3cccnc3N)c(N3C[C@@H](C)CC3(C)C)n2)c1O` [Compound 2158, N-[(2-amino-3-pyridyl)sulfonyl]-6-(2-hydroxy-3-methoxy-phenyl)-2-[(4S)-2,2,4-trimethylpyrrolidin-1-yl]pyridine-3-carboxamide], the concentration for an effect of 30% (EC30) (as a rule, the concentration needed for an effect of 30%) lay within 3 to 10 µM.
The same measure, in the same setting: under `CC1CN(c2ncccc2C(=O)NS(=O)(=O)c2cccc(O[C@H]3CCN(Cc4ccccc4)C3)n2)C(C)(C)C1` (stereo partly drawn) [Compound 2078, N—[[6-[(3S)-1-benzylpyrrolidin-3-yl]oxy-2-pyridyl]sulfonyl]-2-(2,2,4-trimethylpyrrolidin-1-yl)pyridine-3-carboxamide] stands 3 to 10 µM; under `Cc1nn(C)c(C)c1-c1ccc(C(=O)NS(=O)(=O)c2cccnc2N)c(N2C[C@@H](C)CC2(C)C)n1` [Compound 2668, N-[(2-amino-3-pyridyl)sulfonyl]-6-(1,3,5-trimethylpyrazol-4-yl)-2-[(4S)-2,2,4-trimethylpyrrolidin-1-yl]pyridine-3-carboxamide], 3 to 10 µM.
Same read-out and setting: then `CC1CN(c2ncccc2C(=O)NS(=O)(=O)c2cccc(Oc3cc(Cl)cc(C#N)c3)n2)C(C)(C)C1` (stereo not drawn) [Compound 2177, N—[[6-(3-chloro-5-cyano-phenoxy)-2-pyridyl]sulfonyl]-2-(2,2,4-trimethylpyrrolidin-1-yl)pyridine-3-carboxamide], with under 3 µM.
Same read-out and setting: then `CC1CN(c2ncccc2C(=O)NS(=O)(=O)c2cccc(OCc3ccc(C(C)C)cc3)n2)C(C)(C)C1` (stereo not drawn) [Compound 2415, N—[[6-[(4-isopropylphenyl)methoxy]-2-pyridyl]sulfonyl]-2-(2,2,4-trimethylpyrrolidin-1-yl)pyridine-3-carboxamide], with under 3 µM; and `CC1CN(c2ncccc2C(=O)NS(=O)(=O)c2cccc(N3CCN(C4CCCCC4)CC3)n2)C(C)(C)C1` (stereo not drawn) [Compound 2601, N—[[6-(4-cyclohexylpiperazin-1-yl)-2-pyridyl]sulfonyl]-2-(2,2,4-trimethylpyrrolidin-1-yl)pyridine-3-carboxamide], with 3 to 10 µM; and `COc1c(F)cc(-c2ccc(C(=O)NS(=O)(=O)c3cccnc3N)c(N3C[C@@H](C)CC3(C)C)n2)cc1F` [Compound 2457, N-[(2-amino-3-pyridyl)sulfonyl]-6-(3,5-difluoro-4-methoxy-phenyl)-2-[(4S)-2,2,4-trimethylpyrrolidin-1-yl]pyridine-3-carboxamide], with under 3 µM.
`CC1CN(c2ncccc2C(=O)NS(=O)(=O)c2cccc(NCCOc3ccccc3)n2)C(C)(C)C1` (stereo not drawn) [Compound 2206, N—[[6-(2-phenoxyethylamino)-2-pyridyl]sulfonyl]-2-(2,2,4-trimethylpyrrolidin-1-yl)pyridine-3-carboxamide]: the EC30 was under 3 µM.
Consider `COc1cccc(F)c1-c1ccc(C(=O)NS(=O)(=O)c2cccnc2N)c(N2C[C@@H](C)CC2(C)C)n1` [Compound 2033, N-[(2-amino-3-pyridyl)sulfonyl]-6-(2-fluoro-6-methoxy-phenyl)-2-[(4S)-2,2,4-trimethylpyrrolidin-1-yl]pyridine-3-carboxamide], for which the EC30 is under 3 µM.

The same experiment, now with this note: Table 3; compounds of Table 1 as modulators of CFTR activity; protocol not stated.
Consider `COc1ccc(S(=O)(=O)NC(=O)C2c3ccccc3CN2Cc2c(C)cc(C)cc2C)cn1` (stereo not drawn) [Compound 200, N-[(6-methoxy-3-pyridyl)sulfonyl]-2-[(2,4,6-trimethylphenyl)methyl]isoindoline-1-carboxamide], for which the concentration for an effect of 30% (EC30) entry was “++ (“++” means between 3 uM and 10 uM)”.
`CC(C)COc1cc(F)cc(-c2ccc(C(=O)NS(=O)(=O)c3cccc(N)n3)c(N(C)C(C)C3CC3)n2)c1` (stereo not drawn) [Compound 516, N-[(6-amino-2-pyridyl)sulfonyl]-2-[1-cyclopropylethyl(methyl)amino]-6-(3-fluoro-5-isobutoxy-phenyl)pyridine-3-carboxamide]: the EC30 result is “+++ (“+++” means <3 uM)”.
As for `COc1ccc(-c2ccc(C(=O)NS(=O)(=O)c3cccc(N)n3)c(Oc3c(C)cc(C)cc3C)n2)c(OC)n1` [Compound 754, N-[(6-amino-2-pyridyl)sulfonyl]-6-(2,6-dimethoxy-3-pyridyl)-2-(2,4,6-trimethylphenoxy)pyridine-3-carboxamide], the EC30 result was “+++ (“+++” means <3 uM)”.
The same measure, in the same setting: then `CC(C)COc1cc(F)cc(-c2ccc(C(=O)NS(=O)(=O)c3cccc(N)n3)c(N(C)C3CCC3)n2)c1` [Compound 683, N-[(6-amino-2-pyridyl)sulfonyl]-2-[cyclobutyl(methyl)amino]-6-(3-fluoro-5-isobutoxy-phenyl)pyridine-3-carboxamide], with “+++ (“+++” means <3 uM)”; and `Cc1cc(C)c(Oc2nc(-c3ccccc3C(C)(C)C)ccc2C(=O)NS(=O)(=O)c2cccc(N)n2)c(C)c1` [Compound 364, N-[(6-amino-2-pyridyl)sulfonyl]-6-(2-tert-butylphenyl)-2-(2,4,6-trimethylphenoxy)pyridine-3-carboxamide], with “+-F+”; and `Cc1cc(C)c(Cn2nc(C(C)(C)C)cc2C(=O)NS(=O)(=O)c2cccc(N)c2)c(C)c1` [Compound 110, N-(3-aminophenyl)sulfonyl-5-tert-butyl-2-[(2,4,6-trimethylphenyl)methyl]pyrazole-3-carboxamide], with “+++ (“+++” means <3 uM)”.
The same measure, in the same setting: then `CC(C)COc1cc(F)cc(-c2ccc(C(=O)NS(=O)(=O)c3cccc(N)n3)c(OC3CCOC3)n2)c1` (stereo not drawn) [Compound 433, N-[(6-amino-2-pyridyl)sulfonyl]-6-(3-fluoro-5-isobutoxy-phenyl)-2-tetrahydrofuran-3-yloxy-pyridine-3-carboxamide], with “+++ (“+++” means <3 uM)”.
Turning to `Cc1cc(C)c(Cn2c(C(=O)NS(=O)(=O)c3cccc(N)c3)nc3ccccc32)c(C)c1` [Compound 71, N-(3-aminophenyl)sulfonyl-1-[(2,4,6-trimethylphenyl)methyl]benzimidazole-2-carboxamide], the EC30 result is “+++ (“+++” means <3 uM)”.
As for `COc1cc(-c2ccc(C(=O)NS(=O)(=O)c3cccc(N)n3)c(Oc3c(C)cc(C)cc3C)n2)ccc1O` [Compound 768, N-[(6-amino-2-pyridyl)sulfonyl]-6-(4-hydroxy-3-methoxy-phenyl)-2-(2,4,6-trimethylphenoxy)pyridine-3-carboxamide], the EC30 entry was “++ (“++” means between 3 uM and 10 uM)”.
Same read-out and setting: then `COc1c(F)cccc1-c1ccc(C(=O)NS(=O)(=O)c2cccc(N)n2)c(Oc2c(C)cc(C)cc2C)n1` [Compound 396, N-[(6-amino-2-pyridyl)sulfonyl]-6-(3-fluoro-2-methoxy-phenyl)-2-(2,4,6-trimethylphenoxy)pyridine-3-carboxamide], with “+++ (“+++” means <3 uM)”.
On the same count and under the same terms, then `Cc1cc(C)c(Oc2nc(-c3ccc(F)cc3)ccc2C(=O)NS(=O)(=O)c2cc[nH]n2)c(C)c1` [Compound 518, 6-(4-fluorophenyl)-N-(1H-pyrazol-3-ylsulfonyl)-2-(2,4,6-trimethylphenoxy)pyridine-3-carboxamide], with “+++ (“+++” means <3 uM)”.
Still for that read-out and setting: then `CC(C)COc1cccc(-c2ccc(C(=O)NS(=O)(=O)c3cccc(N)n3)c(N3CC(C)CC3(C)C)n2)n1` (stereo not drawn) [Compound 397, N-[(6-amino-2-pyridyl)sulfonyl]-6-(6-isobutoxy-2-pyridyl)-2-(2,2,4-trimethylpyrrolidin-1-yl)pyridine-3-carboxamide], with “+++ (“+++” means <3 uM)”.
